{
  "source": "patent US10085963B2",
  "about": "“Process and compositions for achieving mammalian energy balance” (SAMI LABS LIMITED, priority 2015, dated 2018)",
  "key": {"[1]": {"test_system": "mammalian pre-adipocytes / adipocytes", "test": "Adipogenesis inhibition, Oil Red O staining", "assay_type": "cell-based", "method": "[…] C.) of 5% CO2 and 95% air; • f) Fixing, the cells of step e by adding 100 μl of 10% formalin and staining using the Oil Red O technique; • g) Reading the optical density of cells of step f at 492 nm in a microplate reader and expressing the results as inhibitory concentration (IC50) values using the graph pad prism software; • h) Calculating the percentage inhibition of adipogenesis in the cells of steps f and g using the formula, C-T/T×100, wherein C is the absorbance of Oil Red O in differentiating/undifferentiated cells and T is the absorbance of Oil Red O in sample treated differentiating/undifferentiated cells. • i) Adding 200 μl of freshly prepared Adipogenesis induction medium to the wells of step a. • j) Adding 200 μl of freshly prepared Adipogenesis progression medium comprising graded concentrations of forskolin (50 μg/ml and 100 μg/ml respectively) to the wells of step i after 72 hours of incubation with the Adipogenesis induction medium; • k) Incubating the cells treated with forskolin (step j), adipogenesis induction medium (step i) and adipogenesis progression medium (step j) for 48 hours in a humidified atmosphere (37 deg. C.) of 5% (CO2 and 95% air; • l) Fixing the cells of step 1 by adding 100 μl of 10% formal in and staining using the Oil Red O technique; • m) Reading the optical density of cells of step m at 492 nm in as microplate reader and expressing the results as inhibitory concentration (IC50) values using the graph pad prism software; • n) Calculating the percentage inhibition of adipogenesis in the cells of steps m and n using the formula, C-T/T×100, wherein C is the absorbance of Oil Red O in differentiating/undifferentiated cells and T is the absorbance of Oil Red O in sample treated differentiating/undifferentiated cells; and • o) Comparing percentage inhibition of adipogenesis in the cells of steps h and o."}, "[2]": {"settings": "administration in humans; cited from earlier work"}},
  "data": [
    {"smiles": "C=C[C@@]1(C)CC(=O)[C@]2(O)[C@@]3(C)[C@@H](O)CCC(C)(C)[C@@H]3[C@H](O)[C@H](OC(C)=O)[C@@]2(C)O1", "note": "[forskolin]", "values": [
      {"measurement": "inhibition at 6.25 µg/mL", "setting": "[1]; Adipocyte, forskolin 6.25 μg/ml, read-out: % inhibition of adipogenesis when forskolin is added after differentiation of pre-adipocytes to the adipocyte stage", "value": 1.2, "unit": "%"},
      {"measurement": "inhibition at 12.5 µg/mL", "setting": "[1]; Adipocyte, forskolin 12.50 μg/ml, read-out: % inhibition of adipogenesis when forskolin is added after differentiation of pre-adipocytes to the adipocyte stage", "value": 6.8, "unit": "%"},
      {"measurement": "inhibition at 25 µg/mL", "setting": "[1]; Adipocyte, forskolin 25 μg/ml, read-out: % inhibition of adipogenesis when forskolin is added after differentiation of pre-adipocytes to the adipocyte stage", "value": 10.6, "unit": "%"},
      {"measurement": "inhibition at 50 µg/mL", "setting": "[1]; Adipocyte, forskolin 50 μg/ml, read-out: % inhibition of adipogenesis when forskolin is added after differentiation of pre-adipocytes to the adipocyte stage", "value": 12.9, "unit": "%"},
      {"measurement": "inhibition at 100 µg/mL", "setting": "[1]; Adipocyte, forskolin 100 μg/ml, read-out: % inhibition of adipogenesis when forskolin is added after differentiation of pre-adipocytes to the adipocyte stage", "value": 18.5, "unit": "%"},
      {"measurement": "% inhibition of adipogenesis when forskolin is added at the pre-adipocyte stage (before differentiation into the adipocyte stage)", "setting": "[1]; forskolin 6.25 μg/ml", "value": 10.2, "unit": "%"},
      {"measurement": "% inhibition of adipogenesis when forskolin is added at the pre-adipocyte stage (before differentiation into the adipocyte stage)", "setting": "[1]; forskolin 12.50 μg/ml", "value": 12.8, "unit": "%"},
      {"measurement": "% inhibition of adipogenesis when forskolin is added at the pre-adipocyte stage (before differentiation into the adipocyte stage)", "setting": "[1]; forskolin 25 μg/ml", "value": 19.7, "unit": "%"},
      {"measurement": "% inhibition of adipogenesis when forskolin is added at the pre-adipocyte stage (before differentiation into the adipocyte stage)", "setting": "[1]; forskolin 50 μg/ml", "value": 35.5, "unit": "%"},
      {"measurement": "% inhibition of adipogenesis when forskolin is added at the pre-adipocyte stage (before differentiation into the adipocyte stage)", "setting": "[1]; forskolin 100 μg/ml", "value": 41.8, "unit": "%"},
      {"measurement": "clinically significant side effects", "setting": "[2]", "value": "does not cause clinically significant side effects"}
    ]}
  ]
}
